Measured values published in patent US8778990B2, “Betulinic acid derivatives and methods of use thereof” (Trustees of Dartmouth College, priority 2008, dated 2014).

System: RAW264.7 macrophages
Test: Inhibition of IFNγ-induced NO production (Griess reagent)
Assay type: cell-based
Settings: Mus musculus; RAW264.7, 20 ng/mL IFNγ, 2 h pre-treatment, 24 h
Method: RAW264.7 macrophages were pre-treated with DMSO or drugs at various concentrations (nM) for 2 hours, and subsequently treated with 20 ng/ml IFNγ for 24 hours. NO concentration in media was determined using a Griess reagent system; cell viability was determined using WST-1 reagent. The betulinic acid derivatives are identified by their TP numbers, as shown herein and described in Example 5.
Nitric Oxide Production and Cell Viability. RAW264.7 macrophages were pre-treated with DMSO or drugs for 2 hours, and subsequently treated with recombinant mouse IFN-γ (Sigma) for 24 hours. NO concentration in media was determined using the Griess reagent system (Promega). Cell viability was determined using WST-1 reagent (Roche).

Row | SMILES | IC50 [µM]
1 | C=C(C)[C@@H]1CC[C@]2(C(=O)n3ccnc3)CC[C@]3(C)[C@H](CC[C@@H]4[C@@]5(C)C=C(C#N)C(=O)C(C)(C)[C@@H]5CC[C@]43C)[C@@H]12 [TP-292] | 0.071 to 0.1
2 | C=C(C)[C@@H]1CC[C@]2(C(=O)NCC)CC[C@]3(C)[C@H](CCC4[C@@]5(C)C=C(C#N)C(=O)C(C)(C)[C@@H]5CC[C@]43C)[C@@H]12 (stereo partly shown) [TP-321, reference compound] | 0.088
3 | C=C(C)[C@@H]1CC[C@]2(C(=O)NCC(F)(F)F)CC[C@]3(C)[C@H](CC[C@@H]4[C@@]5(C)C=C(C#N)C(=O)C(C)(C)[C@@H]5CC[C@]43C)[C@@H]12 [TP-342, 2-Cyano-N-(2,2,2-trifluoroethyl)-3-oxolupa-1,20(29)-dien-28-amide] | 0.38
4 | C=C(C)[C@@H]1CC[C@]2(C(=O)NCC(F)F)CC[C@]3(C)[C@H](CC[C@@H]4[C@@]5(C)C=C(C#N)C(=O)C(C)(C)[C@@H]5CC[C@]43C)[C@@H]12 [TP-343, 2-Cyano-N-(2,2-difluoroethyl)-3-oxolupa-1,20(29)-dien-28-amide] | 0.13
5 | C=C(C)[C@@H]1CC[C@]2(C(=O)NCCF)CC[C@]3(C)[C@H](CC[C@@H]4[C@@]5(C)C=C(C#N)C(=O)C(C)(C)[C@@H]5CC[C@]43C)[C@@H]12 [TP-344, 2-Cyano-N-(2-fluoroethyl)-3-oxolupa-1,20(29)-dien-28-amide] | 0.18
6 | C=C(C)[C@@H]1CC[C@]2(C#N)CC[C@]3(C)[C@H](CC[C@@H]4[C@@]5(C)C=C(C#N)C(=O)C(C)(C)[C@@H]5CC[C@]43C)[C@@H]12 [TP-345, 2-Cyano-3-oxolupa-1,20(29)-dien-28-onitrile] | 0.01 to 0.16

System: not listed separately
Test: TP levels in mouse brain after dietary dosing (LC/MS)
Assay type: in vivo
Settings: CD-1 mice fed 200 or 400 mg/kg diet for 3.5 days; compared with TP-319
Method: CD-1 mice were fed either 200 or 400 mg/kg diet of either TP-319 or TP-500 for 3.5 days, and TP levels in the brains of the mice were analyzed by LC/MS. The structures of TP-319 and TP-500 are provided herein.

Row | SMILES | concentration in the brain
7 | CC1(C)CC[C@]2(C(=O)NCC(F)(F)F)CC[C@]3(C)[C@H](C(=O)C=C4[C@@]5(C)C=C(C#N)C(=O)C(C)(C)[C@@H]5CC[C@]43C)[C@@H]2C1 [TP-500, reference compound] | significantly higher concentration in the brain than TP-319
